According to US9457033B2, “Steroid alkaloids and uses thereof as antimicrobial agents against electron transport-deficient microbes and as potentiators for antimicrobial agents against pathogenic bacteria” (priority 2011, dated 2016):
Where two headings read alike, the source gives them in different places.

Experiments:
S. aureus SHY97-3906 = assay: MIC, microdilution in CAMHB 24 h; format: cell-based, Staphylococcus aureus; conditions: SHY97-3906, Cow (mastitis)
S. aureus ATCC 43300 = assay: MIC, microdilution in CAMHB 24 h; format: cell-based, Staphylococcus aureus; conditions: ATCC 43300, Human (HA), MRSA
S. aureus ATCC 29213 [1] = assay: MIC, microdilution in CAMHB 24 h, with or without tomatidine/compound; format: cell-based, Staphylococcus aureus; conditions: ATCC 29213; for Fold (−TO/+TO): tomatidine at 8 μg/ml
S. aureus Mu50 = assay: MIC, microdilution in CAMHB 24 h; format: cell-based, Staphylococcus aureus; conditions: Mu50, Human (SSTI), MRSA, VISA
S. aureus N315 = assay: microbe, parasite or virus in culture; format: cell-based, Staphylococcus aureus; conditions: MRSA
S. aureus CF1A-L = assay: MIC, microdilution in CAMHB 24 h; format: cell-based, Staphylococcus aureus; conditions: CF1A-L, Human (CF lungs)
S. aureus Newbould = assay: MIC, microdilution in CAMHB 24 h; format: cell-based, Staphylococcus aureus; conditions: Newbould, Cow (mastitis)
S. aureus CF2A-L = assay: MIC, microdilution in CAMHB 24 h; format: cell-based; conditions: CF2A-L, Human (CF lungs)
S. aureus CF4B-L = assay: MIC, microdilution in CAMHB 24 h; format: cell-based, Staphylococcus aureus; conditions: CF4B-L, Human (CF lungs)
S. aureus MA078038 = assay: MIC, microdilution in CAMHB 24 h; format: cell-based, Staphylococcus aureus; conditions: MA078038, Human (CA), MRSA
S. aureus CF7A-L = assay: MIC, microdilution in CAMHB 24 h; format: cell-based, Staphylococcus aureus; conditions: CF7A-L, Human (CF lungs), MRSA
S. aureus CF8E-L = assay: MIC, microdilution in CAMHB 24 h; format: cell-based, Staphylococcus aureus; conditions: CF8E-L, Human (CF lungs)
S. aureus ATCC BAA-41 = assay: MIC, microdilution in CAMHB 24 h; format: cell-based, Staphylococcus aureus; conditions: ATCC BAA-41, Human (HA), MRSA
S. aureus CF07-L = assay: MIC, microdilution in CAMHB 24 h; format: cell-based, Staphylococcus aureus; conditions: CF07-L, Human (CF lungs)
S. aureus CF9A-L = assay: MIC, microdilution in CAMHB 24 h; format: cell-based, Staphylococcus aureus; conditions: CF9A-L, Human (CF lungs), MRSA
S. aureus CF35A-L = assay: MIC, microdilution in CAMHB 24 h; format: cell-based, Staphylococcus aureus; conditions: CF35A-L, Human (CF lungs), MRSA
S. aureus Sa220c = assay: MIC, microdilution in CAMHB 24 h; format: cell-based, Staphylococcus aureus; conditions: Sa220c, Human (SSTI), MRSA
S. aureus MRSA COL = assay: MIC, microdilution in CAMHB 24 h; format: cell-based, Staphylococcus aureus; conditions: MRSA COL, Human (SSTI)
S. aureus 8325-4 = assay: MIC, microdilution in CAMHB 24 h; format: cell-based, Staphylococcus aureus; conditions: 8325-4, Laboratory strain
S. aureus Newman = assay: MIC, microdilution in CAMHB 24 h; format: cell-based, Staphylococcus aureus; conditions: Newman, Human (Osteo)
S. aureus CF6B-L = assay: MIC, microdilution in CAMHB 24 h; format: cell-based, Staphylococcus aureus; conditions: CF6B-L, Human (CF lungs)
S. aureus Sa228c = assay: MIC, microdilution in CAMHB 24 h; format: cell-based, Staphylococcus aureus; conditions: MRSA
[2] = system: S. aureus CF07-L (normal strain); assay: MIC, microdilution in BHI 48 h (Examples 1, 3); format: cell-based, Staphylococcus aureus
[3] = system: S. aureus CF1A-L (normal strain); assay: MIC, microdilution in BHI 48 h; format: cell-based, Staphylococcus aureus; conditions: Staphylococcus aureus; CF1A-L, normal strain; read-out: MIC
S. aureus SCV CF1D-S = assay: MIC, microdilution in BHI 48 h; format: cell-based, Staphylococcus aureus; conditions: Staphylococcus aureus, SCVCF1DS
[4] = system: S. aureus SCV NewbouldΔhemB; assay: MIC, microdilution in BHI 48 h; format: cell-based, Staphylococcus aureus
S. aureus ATCC 29213 [5] = assay: MIC, microdilution in BHI 48 h (Examples 1, 3); format: cell-based, Staphylococcus aureus
S. aureus SCV CF07-S = assay: MIC, microdilution in BHI 48 h (Examples 1, 3); format: cell-based, Staphylococcus aureus
[6] = system: S. aureus Newbould (normal strain); assay: MIC, microdilution in BHI 48 h; format: cell-based, Staphylococcus aureus; conditions: Staphylococcus aureus; Newbould, normal strain; read-out: MIC
[7] = Staphylococcus aureus, read-out: MIC

CN(C)[C@@H]1C(=O)C(C(N)=O)=C(O)[C@@]2(O)C(=O)C3=C(O)c4c(O)cccc4[C@@](C)(O)[C@H]3C[C@@H]12 [Tetracycline, tetracycline]
2 µg/mL: MIC (S. aureus CF2A-L)
0.25 µg/mL: MIC (S. aureus CF1A-L) | MIC (S. aureus CF4B-L) | MIC (S. aureus 8325-4) | MIC (S. aureus CF6B-L)
1 to 2 µg/mL: MIC (S. aureus MRSA COL)
0.5 µg/mL: MIC (S. aureus ATCC 43300) | MIC (S. aureus N315; N315, Human (HA)) | MIC (S. aureus MA078038) | MIC (S. aureus ATCC BAA-41) | MIC (S. aureus CF07-L) | MIC (S. aureus CF35A-L) | MIC (S. aureus Sa220c)
1 fold: Fold (−TO/+TO) (S. aureus ATCC 29213 [1])
0.25 to 0.5 µg/mL: MIC (S. aureus SHY97-3906) | MIC (S. aureus ATCC 29213 [1]; Human (SSTI)) | MIC −TO (S. aureus ATCC 29213 [1]; absence of tomatidine) | MIC +TO (S. aureus ATCC 29213 [1]; presence of tomatidine at 8 μg/ml) | MIC (S. aureus Newbould) | MIC (S. aureus CF7A-L) | MIC (S. aureus CF8E-L) | MIC (S. aureus CF9A-L) | MIC (S. aureus Newman)
>16 (R) μg/ml: MIC (S. aureus Mu50) | MIC (S. aureus Sa228c; Sa228c, Human (SSTI))

CC[C@H]1OC(=O)[C@H](C)[C@@H](O[C@H]2C[C@@](C)(OC)[C@@H](O)[C@H](C)O2)[C@H](C)[C@@H](O[C@@H]2O[C@H](C)C[C@H](N(C)C)[C@H]2O)[C@](C)(O)C[C@@H](C)C(=O)[C@H](C)[C@@H](O)[C@]1(C)O [Erythromycin, erythromycin]
0.5 µg/mL: MIC (S. aureus ATCC 29213 [1]; Staphylococcus aureus, ATCC29213, Human (SSTI), read-out: MIC) | MIC (S. aureus ATCC 29213 [1]; Staphylococcus aureus, ATCC29213, absence of tomatidine, read-out: MIC −TO) | MIC (S. aureus ATCC 29213 [1]; Staphylococcus aureus, ATCC29213, presence of tomatidine at 8 μg/ml, read-out: MIC +TO) | MIC (S. aureus Newbould; [7]) | MIC (S. aureus CF2A-L; Staphylococcus aureus, CF2AL, read-out: MIC) | MIC (S. aureus CF4B-L; Staphylococcus aureus, CF4BL, read-out: MIC) | MIC (S. aureus CF8E-L; Staphylococcus aureus, CF8EL, read-out: MIC) | MIC (S. aureus CF07-L; Staphylococcus aureus, CF07L, read-out: MIC) | MIC (S. aureus MRSA COL; [7]) | MIC (S. aureus Newman; [7])
0.5 to 2 µg/mL: MIC (S. aureus CF6B-L; Staphylococcus aureus, CF6BL, read-out: MIC)
0.12 to 0.25 µg/mL: MIC (S. aureus SHY97-3906; Staphylococcus aureus, SHY973906, read-out: MIC) | MIC (S. aureus ATCC 29213 [5]; Staphylococcus aureus, ATCC29213, ATCC 29213, without HQNO, read-out: MIC) | MIC (S. aureus ATCC 29213 [5]; Staphylococcus aureus, ATCC29213, ATCC 29213 in BHI, read-out: MIC)
0.25 to 0.5 µg/mL: MIC (S. aureus CF1A-L; Staphylococcus aureus, CF1AL, read-out: MIC) | MIC (S. aureus 8325-4; Staphylococcus aureus, 83254, read-out: MIC)
>16 µg/mL: MIC ([4]; NewbouldΔhemB, SCV, listed as ERY)
0.12 µg/mL: MIC (S. aureus SCV CF1D-S) | MIC (S. aureus SCV CF07-S; CF07-S, without HQNO) | MIC (S. aureus SCV CF07-S; Staphylococcus aureus, SCVCF07S)
> 16 µg/mL: MIC ([4]; Staphylococcus aureus)
> 64 µg/mL: MIC (S. aureus ATCC 43300; Staphylococcus aureus, ATCC 43300 / MRSA, read-out: MIC) | MIC (S. aureus Mu50; [7]) | MIC (S. aureus N315; Staphylococcus aureus) | MIC (S. aureus CF7A-L; [7]) | MIC (S. aureus ATCC BAA-41; Staphylococcus aureus, ATCC BAA-41 / MRSA, read-out: MIC) | MIC (S. aureus CF9A-L; [7]) | MIC (S. aureus CF35A-L; [7]) | MIC (S. aureus Sa228c; Staphylococcus aureus)
0.12 to 0.5 µg/mL: MIC (S. aureus ATCC 29213 [5]; Staphylococcus aureus, ATCC29213, ATCC 29213 in MHBCA, read-out: MIC)
1 fold: Fold (−TO/+TO) (S. aureus ATCC 29213 [1])
64 µg/mL: MIC (S. aureus MA078038; [7])
0.5 to 1 µg/mL: MIC (S. aureus Sa220c; [7])
0.06 to 0.12 µg/mL: MIC (S. aureus SCV CF07-S; CF07-S + HQNO at 20 μg/ml)
0.25 µg/mL: MIC ([2]; CF07-L + HQNO at 20 μg/ml) | MIC ([2]; CF07-L, without HQNO) | MIC ([2]; Staphylococcus aureus, CF07-L, normal strain, read-out: MIC) | MIC [3] | MIC (S. aureus ATCC 29213 [5]; ATCC 29213 + HQNO at 20 μg/ml) | MIC [6]
